Values quoted from earlier work as cited in US12653874B2, “Nant cancer vaccine” (NantCell, Inc., priority 2016, dated 2026).

Key:
advanced melanoma = conditions: unresectable or advanced melanoma, result in words
[1] = patients receiving treatment (Conroy 2011)

CC(C)(C)c1nc(-c2cccc(NS(=O)(=O)c3c(F)cccc3F)c2F)c(-c2ccnc(N)n2)s1 [Dabrafenib]
PFS (advanced melanoma): improvement in PFS when compared to dacarbazine

rituximab: anti-CD20 antibody
response rate to single agent retreatment (CD20-positive NHL; rituximab refractory (RR) patients, reasonable estimate, trial data not reported): < 5% | patients responding to retreatment (CD20-positive NHL; rituximab sensitive (RS) patients): approximately 40%

FOLFIRINOX
median OS (pancreatic cancer; [1]): 11.1 months | median PFS (pancreatic cancer; [1]): 6.4 months | OS and PFS versus gemcitabine monotherapy (pancreatic cancer; result in words): improves OS and PFS over monotherapy with gemcitabine
